From patent US4587254A, “1,3,4-thiadiazole derivatives, process for the production thereof and use thereof as antiulcer agent” (Wakamoto Pharmaceutical Co., Ltd., priority 1983, dated 1986)
“And” between values parts separate entries of the source, which are not always exact repeats. Identical values can stand only once. Counter-ions that a name gives are not always drawn.

Experiments:
[1] = system: secretion of acid in the stomach; experiment: Inhibition of the secretion of acid in the stomach (pylorus-ligated rats); type: in vivo, rats (Donryu male); conditions: duodenum, 6 h; for Acidity / Gastric juice secreted / Pepsin activity / Inhibition rate (acidity) / Inhibition rate (amount of acid discharged) / Inhibition rate (gastric juice secreted) / Inhibition rate (pepsin activity) / Amount of acid discharged: five rats
Description: The pylorus was ligated. Immediately thereafter, a test sample was placed in the duodenum and the abdomen was closed. Six hour after the administration of the test sample, the stomach was taken out under […] anesthesia and the gastric juice was taken out. The gastric juice was centrifuged. The quantity, acidity and pepsin activity of the supernatant liquid were determined. […] The amount of the acid discharged per hour was calculated by multiplying the acidity by the quantity of the juice. Pepsin activity was determined by Anson's method [J. gen. […] The results of the tests of TAS are the averages of the group consisting of ten rats.

[2] = Antiulcer effects (pylorus-ligated rats); type: in vivo, rats (Donryu); conditions: for Inhibition rate (ulcer): duodenum, 8 h
Description: Donryu rats weighing 200 to 230 g were used. Each group consisted of 6 rats. After fasting for 72 h, the rats were subjected to an abdominal operation under etheral anesthesia. The pylorus was ligated. Immediately thereafter, a given dose of a test sample was placed in the duodenum. Thereafter, neither food nor water was given. After 8 h, the stomach was taken out under etheral anesthesia and immersed in 1% formalin solution for 10 min. The stomach was cut along the greater curvature. The area of ulcer formed in the forestomach was determined by an anatomico-microscopicobservation (magnification: ×10). The rate of control of the ulcer (%) was calculated as compared with a control.

[3] = Acute toxicity in mice (LD50); conditions: mouse, in vivo
Description: (§1) For example, the acute toxicities of a compound of the formula (I) wherein R2 represents --NH2 in mice and rats are as shown in Table 1. The acute toxicities of compounds of the formula (I) wherein R2 represents --NHCH3, --SH or --SCH3 are nearly equal to that shown in Table 1.

[4] = Acute toxicity in rats (LD50); conditions: rat, in vivo
Description: as §1

Compound: CN/C(=N/CCSCc1nc[nH]c1C)NC#N [cimetidine, reference compound]
- Acidity ([1]; 6.7 mg/kg): 85.0 meq H^+ /l and 76.0 meq H^+ /l
- Gastric juice secreted ([1]; 6.7 mg/kg): 5.4 mL and 5.0 mL
- Pepsin activity ([1]; 6.7 mg/kg): 7.0 mg/mL and 5.5 mg/mL
- Acidity ([1]; 20.0 mg/kg): 77.0 meq H^+ /l and 79.0 meq H^+ /l
- Gastric juice secreted ([1]; 20.0 mg/kg): 4.8 mL and 4.5 mL
- Inhibition rate (acidity) ([1]; 20.0 mg/kg): 5.4% and 11.0%
- Inhibition rate (amount of acid discharged) ([1]; 20.0 mg/kg): 31.0% and 29.0%
- Inhibition rate (gastric juice secreted) ([1]; 20.0 mg/kg): 17.0% and 29.0%
- Inhibition rate (pepsin activity) ([1]; 20.0 mg/kg): 0% and 7.3%
- Pepsin activity ([1]; 20.0 mg/kg): 6.2 mg/mL and 5.1 mg/mL
- Acidity ([1]; 60.0 mg/kg): 61.0 meq H^+ /l and 62.0 meq H^+ /l
- Gastric juice secreted ([1]; 60.0 mg/kg): 3.7 mL and 4.5 mL
- Inhibition rate (acidity) ([1]; 60.0 mg/kg): 25.0% and 31.0%
- Inhibition rate (amount of acid discharged) ([1]; 60.0 mg/kg): 55.0% and 45.0%
- Inhibition rate (gastric juice secreted) ([1]; 60.0 mg/kg): 36.0% and 29.0%
- Pepsin activity ([1]; 60.0 mg/kg): 6.3 mg/mL
- Amount of acid discharged ([1]; Table 3, 6.7 mg/kg): 79.0 μEq/H
- Amount of acid discharged ([1]; Table 3, 20.0 mg/kg): 57.0 μEq/H
- Amount of acid discharged ([1]; Table 3, 60.0 mg/kg): 38.0 μEq/H
- Amount of acid discharged ([1]; Table 4, 6.7 mg/kg): 67.0 μEq/h
- Amount of acid discharged ([1]; Table 4, 20.0 mg/kg): 61.0 μEq/h
- Amount of acid discharged ([1]; Table 4, 60.0 mg/kg): 47.0 μEq/h
- Rate of control of the amount of acid discharged ([1]; Table 5, 6.7 mg/kg, ten rats): 2.5%
- Rate of control of the amount of pepsin discharged ([1]; Table 5, 6.7 mg/kg, ten rats): -6.1%
- Rate of inhibition of acidity ([1]; Table 5, 6.7 mg/kg, ten rats): 2.9%
- Rate of inhibition of the secretion of gastric juice ([1]; Table 5, 6.7 mg/kg, ten rats): 3.8%
- Rate of control of the amount of acid discharged ([1]; Table 5, 20.0 mg/kg, ten rats): 25.6%
- Rate of control of the amount of pepsin discharged ([1]; Table 5, 20.0 mg/kg, ten rats): 6.1%
- Rate of inhibition of acidity ([1]; Table 5, 20.0 mg/kg, ten rats): 12.4%
- Rate of inhibition of the secretion of gastric juice ([1]; Table 5, 20.0 mg/kg, ten rats): 7.7%
- Rate of control of the amount of acid discharged ([1]; Table 5, 60.0 mg/kg, ten rats): 51.1%
- Rate of control of the amount of pepsin discharged ([1]; Table 5, 60.0 mg/kg, ten rats): 4.5%
- Rate of inhibition of acidity ([1]; Table 5, 60.0 mg/kg, ten rats): 30.9%
- Rate of inhibition of the secretion of gastric juice ([1]; Table 5, 60.0 mg/kg, ten rats): 28.8%
- Inhibition rate (ulcer) ([2]; 100 mg/kg): 10%
- Inhibition rate (ulcer) ([2]; 200 mg/kg): 60%

Compound: CNC(=C[N+](=O)[O-])NCCSCc1ccc(CN(C)C)o1 [ranitidine, reference compound]
- Rate of control of the amount of acid discharged ([1]; Table 5, 6.7 mg/kg, ten rats): 19.3%
- Rate of control of the amount of pepsin discharged ([1]; Table 5, 6.7 mg/kg, ten rats): 1.5%
- Rate of inhibition of acidity ([1]; Table 5, 6.7 mg/kg, ten rats): 11.3%
- Rate of inhibition of the secretion of gastric juice ([1]; Table 5, 6.7 mg/kg, ten rats): 7.7%
- Rate of control of the amount of acid discharged ([1]; Table 5, 20.0 mg/kg, ten rats): 54.2%
- Rate of control of the amount of pepsin discharged ([1]; Table 5, 20.0 mg/kg, ten rats): -4.5%
- Rate of inhibition of acidity ([1]; Table 5, 20.0 mg/kg, ten rats): 28.2%
- Rate of inhibition of the secretion of gastric juice ([1]; Table 5, 20.0 mg/kg, ten rats): 23.1%
- Rate of control of the amount of acid discharged ([1]; Table 5, 60.0 mg/kg, ten rats): 67.4%
- Rate of control of the amount of pepsin discharged ([1]; Table 5, 60.0 mg/kg, ten rats): -3.0%
- Rate of inhibition of acidity ([1]; Table 5, 60.0 mg/kg, ten rats): 50.1%
- Rate of inhibition of the secretion of gastric juice ([1]; Table 5, 60.0 mg/kg, ten rats): 34.6%
- Inhibition rate (ulcer) ([2]; 100 mg/kg): 50%
- Inhibition rate (ulcer) ([2]; 200 mg/kg): 85%

Compound: Nc1nnc(NCCCOc2cccc(CN3CCCCC3)c2)s1 [2-N-{3-[3-(1-piperidinomethyl)phenoxy]propyl}amino-5-amino-1,3,4-thiadiazole]
- LD50 ([3]; intravenous injection): 53.2 mg/kg
- LD50 ([3]; po, peroral): 1220 mg/kg
- LD50 ([4]; intravenous injection): 91.6 mg/kg
- LD50 ([4]; po, peroral): 1410 mg/kg

Compound: Nc1nnc(NCCCOc2cccc(CN3CCCCC3)c2)s1 [TAS, 2-N-{3-[3-(1-piperidinomethyl)phenoxy]propyl}-amino-5-amino-1,3,4-thiadiazole hydrochloride]
- Rate of control of the amount of acid discharged ([1]; Table 5, 6.7 mg/kg, ten rats): 85.7%
- Rate of control of the amount of pepsin discharged ([1]; Table 5, 6.7 mg/kg, ten rats): 13.6%
- Rate of inhibition of acidity ([1]; Table 5, 6.7 mg/kg, ten rats): 67.4%
- Rate of inhibition of the secretion of gastric juice ([1]; Table 5, 6.7 mg/kg, ten rats): 57.7%
- Rate of control of the amount of acid discharged ([1]; Table 5, 20.0 mg/kg, ten rats): 91.4%
- Rate of control of the amount of pepsin discharged ([1]; Table 5, 20.0 mg/kg, ten rats): 25.8%
- Rate of inhibition of acidity ([1]; Table 5, 20.0 mg/kg, ten rats): 74.0%
- Rate of inhibition of the secretion of gastric juice ([1]; Table 5, 20.0 mg/kg, ten rats): 65.4%
- Rate of control of the amount of acid discharged ([1]; Table 5, 60.0 mg/kg, ten rats): 100%
- Rate of control of the amount of pepsin discharged ([1]; Table 5, 60.0 mg/kg, ten rats): 86.4%
- Rate of inhibition of acidity ([1]; Table 5, 60.0 mg/kg, ten rats): 100%
- Rate of inhibition of the secretion of gastric juice ([1]; Table 5, 60.0 mg/kg, ten rats): 82.7%
- Rate of control of the amount of acid discharged ([1]; Table 6, 0.7 mg/kg): 40.2%
- Rate of control of the amount of pepsin discharged ([1]; Table 6, 0.7 mg/kg): -1.3%
- Rate of inhibition of acidity ([1]; Table 6, 0.7 mg/kg): 22.4%
- Rate of inhibition of the secretion of gastric juice ([1]; Table 6, 0.7 mg/kg): 23.51%
- Rate of control of the amount of acid discharged ([1]; Table 6, 6.7 mg/kg): 81.5%
- Rate of control of the amount of pepsin discharged ([1]; Table 6, 6.7 mg/kg): 15.2%
- Rate of inhibition of acidity ([1]; Table 6, 6.7 mg/kg): 65.7%
- Rate of inhibition of the secretion of gastric juice ([1]; Table 6, 6.7 mg/kg): 52.9%
- Rate of control of the amount of acid discharged ([1]; Table 6, 20.0 mg/kg): 91.5%
- Rate of control of the amount of pepsin discharged ([1]; Table 6, 20.0 mg/kg): 30.4%
- Rate of inhibition of acidity ([1]; Table 6, 20.0 mg/kg): 75.0%
- Rate of inhibition of the secretion of gastric juice ([1]; Table 6, 20.0 mg/kg): 66.7%
- Inhibition rate (ulcer) ([2]; 6.3 mg/kg): 60.0%
- Inhibition rate (ulcer) ([2]; 12.5 mg/kg): 90.0%
- Inhibition rate (ulcer) ([2]; 25.0 mg/kg): 95.0%
- Inhibition rate (ulcer) ([2]; 50.0 mg/kg): 100%
- antiulcer effects compared with 200 mg/kg of cimetidine or ranitidine ([2]; 12.5 to 50 mg/kg): far superior

Compound: CNc1nnc(NCCCOc2cccc(CN3CCCCC3)c2)s1 [H2 --33, 2-N-{3-[3-(1-piperidinomethyl)phenoxy]-propyl}amino-5-methylamino-1,3,4-thiadiazole]
- Acidity ([1]; 6.7 mg/kg): 70.0 meq H^+ /l
- Gastric juice secreted ([1]; 6.7 mg/kg): 4.8 mL
- Inhibition rate (acidity) ([1]; 6.7 mg/kg): 14.0%
- Inhibition rate (amount of acid discharged) ([1]; 6.7 mg/kg): 35.0%
- Inhibition rate (gastric juice secreted) ([1]; 6.7 mg/kg): 17.0%
- Inhibition rate (pepsin activity) ([1]; 6.7 mg/kg): -3.2%
- Pepsin activity ([1]; 6.7 mg/kg): 6.4 mg/mL
- Acidity ([1]; 20.0 mg/kg): 52.0 meq H^+ /l
- Gastric juice secreted ([1]; 20.0 mg/kg): 2.5 mL
- Inhibition rate (acidity) ([1]; 20.0 mg/kg): 36.0%
- Inhibition rate (amount of acid discharged) ([1]; 20.0 mg/kg): 70.0%
- Inhibition rate (gastric juice secreted) ([1]; 20.0 mg/kg): 57.0%
- Inhibition rate (pepsin activity) ([1]; 20.0 mg/kg): 0%
- Pepsin activity ([1]; 20.0 mg/kg): 6.2 mg/mL
- Acidity ([1]; 60.0 mg/kg): 24.0 meq H^+ /l
- Gastric juice secreted ([1]; 60.0 mg/kg): 2.9 mL
- Inhibition rate (acidity) ([1]; 60.0 mg/kg): 70.0%
- Inhibition rate (amount of acid discharged) ([1]; 60.0 mg/kg): 88.0%
- Inhibition rate (gastric juice secreted) ([1]; 60.0 mg/kg): 50.0%
- Inhibition rate (pepsin activity) ([1]; 60.0 mg/kg): 21.0%
- Pepsin activity ([1]; 60.0 mg/kg): 4.9 mg/mL
- Amount of acid discharged ([1]; Table 3, 6.7 mg/kg): 54.0 μEq/H
- Amount of acid discharged ([1]; Table 3, 20.0 mg/kg): 25.0 μEq/H
- Amount of acid discharged ([1]; Table 3, 60.0 mg/kg): 10.0 μEq/H

Compound: Sc1nnc(NCCCOc2cccc(CN3CCCCC3)c2)s1 [H2 --37, 2-N-{3-[3-(1-piperidinomethyl)phenoxy]propyl}amino-5-mercapto-1,3,4-thiadiazole]
- Acidity ([1]; 6.7 mg/kg): 85.0 meq H^+ /l
- Gastric juice secreted ([1]; 6.7 mg/kg): 4.6 mL
- Inhibition rate (acidity) ([1]; 6.7 mg/kg): 4.5%
- Inhibition rate (amount of acid discharged) ([1]; 6.7 mg/kg): 22.0%
- Inhibition rate (gastric juice secreted) ([1]; 6.7 mg/kg): 27.0%
- Inhibition rate (pepsin activity) ([1]; 6.7 mg/kg): -7.3%
- Pepsin activity ([1]; 6.7 mg/kg): 5.9 mg/mL
- Acidity ([1]; 20.0 mg/kg): 81.0 meq H^+ /l
- Gastric juice secreted ([1]; 20.0 mg/kg): 5.2 mL
- Inhibition rate (acidity) ([1]; 20.0 mg/kg): 9.0%
- Inhibition rate (amount of acid discharged) ([1]; 20.0 mg/kg): 21.0%
- Inhibition rate (gastric juice secreted) ([1]; 20.0 mg/kg): 18.0%
- Inhibition rate (pepsin activity) ([1]; 20.0 mg/kg): -7.3%
- Pepsin activity ([1]; 20.0 mg/kg): 5.9 mg/mL
- Acidity ([1]; 60.0 mg/kg): 67.0 meq H^+ /l
- Gastric juice secreted ([1]; 60.0 mg/kg): 3.6 mL
- Inhibition rate (acidity) ([1]; 60.0 mg/kg): 24.0%
- Inhibition rate (amount of acid discharged) ([1]; 60.0 mg/kg): 57.0%
- Inhibition rate (gastric juice secreted) ([1]; 60.0 mg/kg): 43.0%
- Inhibition rate (pepsin activity) ([1]; 60.0 mg/kg): 1.8%
- Pepsin activity ([1]; 60.0 mg/kg): 5.4 mg/mL
- Amount of acid discharged ([1]; Table 4, 6.7 mg/kg): 67.0 μEq/h
- Amount of acid discharged ([1]; Table 4, 20.0 mg/kg): 68.0 μEq/h
- Amount of acid discharged ([1]; Table 4, 60.0 mg/kg): 37.0 μEq/h
